Results taken from patent US9409882B2, “Pyridine derivatives” (Hoffmann-La Roche Inc., priority 2012, dated 2016).

Tests used:
human Cathepsin S = human Cathepsin S (Homo sapiens (Human), UniProt P25774); experiment: Cathepsin enzyme inhibition assay (fluorogenic peptide substrate), human Cat S; assay type: biochemical; conditions: human Cat S 1 nM, substrate Z-Val-Val-Arg-AMC 20 μM, pH 6.5
Experimental: (§1) Cathepsin Enzyme Inhibition Assay
(§2) Enzyme activity is measured by observing the increase in fluorescence intensity caused by cleavage of a peptide substrate containing a fluorophore whose emission is quenched in the intact peptide.
(§3) Assay buffer: 100 mM potassium phosphate pH 6.5, EDTA-Na 5 mM, Triton X-100 0.001%, DTT 5 mM.
(§4) Enzymes (all at 1 nM): human and mouse Cathepsin S, Cat K, Cat B, Cat L.
(§5) Substrate (20 μM): Z-Val-Val-Arg-AMC, except for Cat K which uses Z-Leu-Arg-AMC (both from Bachem).
(§6) AMC=7-Amino-4-Methyl-Coumarin.
(§7) Excitation 360 nm, Emission 465 nm.
(§8) Enzyme is added to the substance dilutions in 96-well microtitre plates and the reaction is started with substrate. […] IC50 are calculated by standard methods.
(§9) Inhibition of human Cat S, mouse Cat S, human Cat K, human Cat B, human Cat L and mouse Cat L have been measured separately.

human Cat L = human Cat L (Homo sapiens (Human), UniProt P07711); experiment: Cathepsin enzyme inhibition assay (fluorogenic peptide substrate), human Cat L; assay type: biochemical; conditions: human Cat L 1 nM, substrate Z-Val-Val-Arg-AMC 20 μM, pH 6.5
Experimental: as §1, §2, §3, §4, §5, §6, §7, §8, §9

human Cathepsin S, sequence (P25774 115-331): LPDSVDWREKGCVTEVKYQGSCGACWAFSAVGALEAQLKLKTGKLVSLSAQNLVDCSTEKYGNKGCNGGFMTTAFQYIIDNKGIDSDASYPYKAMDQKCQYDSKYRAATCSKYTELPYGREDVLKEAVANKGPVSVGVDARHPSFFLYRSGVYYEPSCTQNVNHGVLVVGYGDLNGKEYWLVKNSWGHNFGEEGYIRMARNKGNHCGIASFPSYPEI
human Cat L, sequence (P07711 114-333): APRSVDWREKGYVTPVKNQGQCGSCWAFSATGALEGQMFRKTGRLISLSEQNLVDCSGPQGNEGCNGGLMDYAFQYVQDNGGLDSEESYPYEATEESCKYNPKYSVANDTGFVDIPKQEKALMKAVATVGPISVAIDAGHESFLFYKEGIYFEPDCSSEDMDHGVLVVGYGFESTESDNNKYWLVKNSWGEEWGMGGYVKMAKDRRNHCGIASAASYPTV

| SMILES | IC50 (human Cathepsin S) [nM] | IC50 (human Cat L) [nM] |
| --- | --- | --- |
| COc1ccc(S(=O)(=O)[C@@H]2C[C@@H](C(=O)NC3(C#N)CC3)N(C(=O)C3(c4ccc(Cl)cn4)CC3)C2)c(Cl)c1 [Example 1, (2S,4R)-4-(2-Chloro-4-methoxy-benzenesulfonyl)-1-[1-(5-chloro-pyridin-2-yl)-cyclopropanecarbonyl]-pyrrolidine-2-carboxylic acid (1-cyano-cyclopropyl)-amide] | 0.606 | 410 |
| N#CC1(NC(=O)[C@@H]2C[C@@H](S(=O)(=O)c3ccccc3Cl)CN2C(=O)C2(c3ncc(Br)cc3F)CC2)CC1 [Example 8, (2S,4R)-1-[1-(5-Bromo-3-fluoro-pyridin-2-yl)-cyclopropanecarbonyl]-4-(2-chloro-benzenesulfonyl)-pyrrolidine-2-carboxylic acid (1-cyano-cyclopropyl)-amide] | 0.438 | 19.2 |
| N#CC1(NC(=O)[C@@H]2C[C@@H](S(=O)(=O)c3ccccc3F)CN2C(=O)C2(c3ncc(I)cc3F)CC2)CC1 [Example 41, (2S,4R)-4-(2-Fluoro-benzenesulfonyl)-1-[1-(3-fluoro-5-iodo-pyridin-2-yl)-cyclopropanecarbonyl]-pyrrolidine-2-carboxylic acid (1-cyano-cyclopropyl)-amide] | 0.6 | 3 |
| N#CC1(NC(=O)[C@@H]2C[C@@H](S(=O)(=O)c3ccc(C(F)(F)F)cn3)CN2C(=O)C2(c3ncc(Cl)cc3F)CC2)CC1 [Example 24, (2S,4R)-1-[1-(5-Chloro-3-fluoro-pyridin-2-yl)-cyclopropanecarbonyl]-4-(5-trifluoromethyl-pyridine-2-sulfonyl)-pyrrolidine-2-carboxylic acid (1-cyano-cyclopropyl)-amide] | 6.24 | 2690 |
| N#CC1(NC(=O)[C@@H]2C[C@H](S(=O)(=O)c3ccc(F)cc3Cl)CN2C(=O)C2(c3ncc(Cl)cc3F)CC2)CC1 [Example 15, (2S,4S)-4-(2-Chloro-4-fluoro-benzenesulfonyl)-1-[1-(5-chloro-3-fluoro-pyridin-2-yl)-cyclopropanecarbonyl]-pyrrolidine-2-carboxylic acid (1-cyano-cyclopropyl)-amide] | 11.1 | 1680 |
| N#CC1(NC(=O)[C@@H]2C[C@@H](S(=O)(=O)c3ccc(F)cc3Cl)CN2C(=O)C2(c3ncc(Cl)cc3F)CC2)CC1 [Example 11, (2S,4R)-1-(1-(5-chloro-3-fluoropyridin-2-yl)cyclopropanecarbonyl)-4-(2-chloro-4-fluorophenylsulfonyl)-N-(1-cyanocyclopropyl)pyrrolidine-2-carboxamide] | 0.602 | 89.8 |
| N#CC1(NC(=O)[C@@H]2C[C@@H](S(=O)(=O)c3ccccc3-n3cccn3)CN2C(=O)C2(c3ncc(I)cc3F)CC2)CC1 [Example 43, (2S,4R)-1-[1-(3-Fluoro-5-iodo-pyridin-2-yl)-cyclopropanecarbonyl]-4-(2-pyrazol-1-yl-benzenesulfonyl)-pyrrolidine-2-carboxylic acid (1-cyano-cyclopropyl)-amide] | 17 | 90.6 |
| N#CC1(NC(=O)[C@@H]2C[C@@H](S(=O)(=O)c3ccccc3-n3cccn3)CN2C(=O)C2(c3ncc(Cl)cc3F)CC2)CC1 [Example 46] | 159 | 17400 |
| N#CC1(NC(=O)[C@@H]2C[C@@H](S(=O)(=O)c3ccccc3-n3cncn3)CN2C(=O)C2(c3ncc(Cl)cc3F)CC2)CC1 [Example 48, (2S,4R)-1-[1-(5-Chloro-3-fluoro-pyridin-2-yl)-cyclopropanecarbonyl]-4-(2-[1,2,4]triazol-1-yl-benzenesulfonyl)-pyrrolidine-2-carboxylic acid (1-cyano-cyclopropyl)-amide] | 58.5 | 21100 |
| COc1ccc(S(=O)(=O)[C@@H]2C[C@@H](C(=O)NC3(C#N)CC3)N(C(=O)C3(c4ncc(Br)cc4F)CC3)C2)c(Cl)c1 [Example 7, (2S,4R)-1-[1-(5-Bromo-3-fluoro-pyridin-2-yl)-cyclopropanecarbonyl]-4-(2-chloro-4-methoxy-benzenesulfonyl)-pyrrolidine-2-carboxylic acid (1-cyano-cyclopropyl)-amide] | 0.734 | 25.5 |
| N#CC1(NC(=O)[C@@H]2C[C@@H](Sc3ccc(C(F)(F)F)cn3)CN2C(=O)C2(c3ncc(Cl)cc3F)CC2)CC1 [Example 20, (2S,4R)-1-[1-(5-Chloro-3-fluoro-pyridin-2-yl)-cyclopropanecarbonyl]-4-(5-trifluoromethyl-pyridin-2-ylsulfanyl)-pyrrolidine-2-carboxylic acid (1-cyano-cyclopropyl)-amide] | 393 | 5060 |
| N#CC1(NC(=O)[C@@H]2C[C@@H](S(=O)(=O)c3ccc(-c4ccnc(Cl)c4)cc3Cl)CN2C(=O)C2(c3ncc(Cl)cc3F)CC2)CC1 [Example 32, (2S,4R)-4-[2-Chloro-4-(2-chloro-pyridin-4-yl)-benzenesulfonyl]-1-[1-(5-chloro-3-fluoro-pyridin-2-yl)-cyclopropanecarbonyl]-pyrrolidine-2-carboxylic acid (1-cyano-cyclopropyl)-amide] | 0.686 | 112 |
| N#CC1(NC(=O)[C@@H]2C[C@@H](S(=O)(=O)c3cc(C(F)(F)F)ccc3Cl)CN2C(=O)C2(c3ccc(Cl)cn3)CC2)CC1 [Example 29, (2S,4R)-1-[1-(5-Chloro-pyridin-2-yl)-cyclopropanecarbonyl]-4-(2-chloro-5-trifluoromethyl-benzenesulfonyl)-pyrrolidine-2-carboxylic acid (1-cyano-cyclopropyl)-amide] | 0.618 | 362 |
| Cn1cc(-c2ccc(S(=O)(=O)[C@@H]3C[C@@H](C(=O)NC4(C#N)CC4)N(C(=O)C4(c5ncc(C(F)(F)F)cc5F)CC4)C3)c(Cl)c2)cn1 [Example 39, (2S,4R)-4-[2-Chloro-4-(1-methyl-1H-pyrazol-4-yl)-benzenesulfonyl]-1-[1-(3-fluoro-5-trifluoromethyl-pyridin-2-yl)-cyclopropanecarbonyl]-pyrrolidine-2-carboxylic acid (1-cyano-cyclopropyl)-amide] | 0.696 | 43.6 |
| Cn1cc(-c2ccc(S(=O)(=O)[C@@H]3C[C@@H](C(=O)NC4(C#N)CC4)N(C(=O)C4(c5ncc(I)cc5F)CC4)C3)c(Cl)c2)cn1 [Example 38, (2S,4R)-4-[2-Chloro-4-(1-methyl-1H-pyrazol-4-yl)-benzenesulfonyl]-1-[1-(3-fluoro-5-iodo-pyridin-2-yl)-cyclopropanecarbonyl]-pyrrolidine-2-carboxylic acid (1-cyano-cyclopropyl)-amide] | 0.678 | 3.2 |
| N#CC1(NC(=O)[C@@H]2C[C@@H](S(=O)(=O)c3ccccc3Cl)CN2C(=O)C2(c3ccc(Cl)cn3)CC2)CC1 [Example 2, (2S,4R)-4-(2-Chloro-benzenesulfonyl)-1-[1-(5-chloro-pyridin-2-yl)-cyclopropanecarbonyl]-pyrrolidine-2-carboxylic acid (1-cyano-cyclopropyl)-amide] | 0.492 | 340 |
| Cc1cccc(S(=O)(=O)[C@@H]2C[C@@H](C(=O)NC3(C#N)CC3)N(C(=O)C3(c4ncc(Cl)cc4F)CC3)C2)n1 [Example 23, (2S,4R)-1-[1-(5-Chloro-3-fluoro-pyridin-2-yl)-cyclopropanecarbonyl]-4-(6-methylpyridine-2-sulfonyl)-pyrrolidine-2-carboxylic acid (1-cyano-cyclopropyl)-amide] | 2.8 | 5640 |
| N#CC1(NC(=O)[C@@H]2C[C@@H](S(=O)(=O)c3ccccc3F)CN2C(=O)C2(c3ncc(Cl)cc3F)CC2)CC1 [Example 42, (2S,4R)-1-[1-(5-Chloro-3-fluoro-pyridin-2-yl)-cyclopropanecarbonyl]-4-(2-fluoro-benzenesulfonyl)-pyrrolidine-2-carboxylic acid (1-cyano-cyclopropyl)-amide] | 0.7 | 31 |
| N#CC1(NC(=O)[C@@H]2C[C@@H](Sc3ccc(Cl)cn3)CN2C(=O)C2(c3ncc(Cl)cc3F)CC2)CC1 [Example 17, (2S,4R)-1-[1-(5-Chloro-3-fluoro-pyridin-2-yl)-cyclopropanecarbonyl]-4-(5-chloro-pyridin-2-ylsulfanyl)-pyrrolidine-2-carboxylic acid (1-cyano-cyclopropyl)-amide] | 264 | 5650 |
| Cc1ncccc1-c1ccc(S(=O)(=O)[C@@H]2C[C@@H](C(=O)NC3(C#N)CC3)N(C(=O)C3(c4ncc(Cl)cc4Cl)CC3)C2)c(Cl)c1 [Example 37, (2S,4R)-4-[2-Chloro-4-(2-methyl-pyridin-3-yl)-benzenesulfonyl]-1-[1-(3,5-dichloro-pyridin-2-yl)-cyclopropanecarbonyl]-pyrrolidine-2-carboxylic acid (1-cyano-cyclopropyl)-amide] | 0.779 | 72.2 |
| Cc1ncccc1-c1ccc(S(=O)(=O)[C@@H]2C[C@@H](C(=O)NC3(C#N)CC3)N(C(=O)C3(c4ncc(C(F)(F)F)cc4F)CC3)C2)c(Cl)c1 [Example 35, (2S,4R)-4-[2-Chloro-4-(2-methyl-pyridin-3-yl)-benzenesulfonyl]-1-[1-(3-fluoro-5-trifluoromethyl-pyridin-2-yl)-cyclopropanecarbonyl]-pyrrolidine-2-carboxylic acid (1-cyano-cyclopropyl)-amide] | 0.768 | 58.9 |
